{
  "source": "patent US20220105157A1",
  "about": "“Compositions and Methods for Promoting Angiogenesis in the Eye” (The Regents of the University of California, priority 2019, published 2022)",
  "key": {"mouse choroidal explants": {"system": "mouse choroidal explants", "assay": "Mouse choroidal explant assay (ex vivo sprouting)", "type": "cell-based", "conditions": "LIF 10 ng/ml, compared with control", "description": "In a 48-well plate, 60 μL of growth factor-reduced basement membrane extract (GFR-BME) (Corning, CAT #354230) was added to each well and allowed to solidify at 37° C. for 20 minutes. A dice of the peripheral choroid-scleral complex (approximately 1 mm×1 mm), dissected from male C57BL/6J mice (age P20), was added to the center of each well as previously described (23). A top layer of 60 μL GFR-BME was added to each well, followed by incubation at 37° C. for 30 minutes. Upon adding 500 μL of endothelial cell growth basal medium EBM-2 (Lonza, CAT #CC3156) supplemented with 2% FBS and antibiotics, endogenous VEGF activity of choroid explants was blunted by 5 μg/ml of anti-VEGF Mab B20-4.1.1. After 90 minutes of incubation with the antibody, 10 ng/ml of LIF or PBS control was added in the test wells. Tissues were incubated in standard cell culture conditions with 5% CO2 and fresh media were changed every 48 hours. Phase contrast Z-stack images of each explants were taken on day 5 using a Keyence microscope. Vessel sprouting areas were quantified using ImageJ software. The experiment was repeated three times and data were obtained by analyzing 5 replicates per each condition each time."}, "BAE cells": {"system": "BAE cells", "assay": "Gene and protein expression in LIF-treated BAE cells (RNA-seq, qRT-PCR, cathepsin L ELISA)", "type": "cell-based, bovine", "description": "VEGF and LIF levels in LN-229 CM samples were determined by a human VEGF ELISA kit (R&D Systems, CAT #DVE00) and a human LIF ELISA kit (Biolegend, CAT #443507) according to manufacturers' instructions, respectively. Cathepsin L levels in BAE cells were measured using a bovine cathepsin L ELISA kit (MyBioSource, Inc, CAT #MBS2887609) per manufacturer's instructions.\nBCE and BAE cells, after the indicated treatments, were lysed with Trizol reagent (Invitrogen, CAT #15596026) and subjected to RNA extraction following manufacturer's instructions. RNA concentrations were determined with Nanodrop 2000 (ThermoFisher Scientific) and 1 μg of total RNAs were reverse-transcribed to cDNAs using the High-Capacity cDNA Reverse Transcription Kit (Applied Biosystems, CAT #4368814). Equal amounts (generally 10 ng/reaction) of cDNAs were subjected to qRT-PCR analyses using the TaqMan Fast Advanced Master Mix (Applied Biosystems, CAT #4444557) and the ViiA7 Real-time PCR system. Relative mRNA levels of the examined genes were normalized to the internal control RPLP0 (Ribosomal Protein Lateral Stalk Subunit P0), determined by comparing with control sample group, and reported as fold changes. TaqMan gene expression assay probes were used: bovine RPLP0 (Bt03218086_ml), bovine STAT3 (Bt03259865_ml), bovine CTSL1 (Bt03257307_ml and Bt03257309_ml), bovine CTSB (Bt03259161_ml), bovine MYC (Bt03260377_ml), bovine JunB (Bt03246919_s1), bovine CCNA2 (Bt03240503_g1), bovine CCNB1 (Bt03237853_g1), and bovine PIM1 (Bt03212957_ml). The experiment was carried out in triplicate and repeated three times."}, "[1]": {"system": "retinal vasculature of mouse eyes", "assay": "Intravitreal injection of recombinant proteins in mouse eyes, retinal vessel density", "type": "in vivo", "conditions": "for retinal microvessel density (CD31): 6-8 week old mice, intravitreal", "description": "Male C57BL/6J mice (6-8 week and P5) were anesthetized with ketamine/Xylazine cocktail. The indicated amounts of recombinant LIF (Sigma, CAT #SRP9001) in 1 μl of PBS and PBS vehicle control were injected intravitreally with a 33-gauge Hamilton syringe. Seven (for adult mice) or 3 (for neonatal mice) days after injection, animals were euthanized, eyes were then enucleated and fixed in 4% paraformaldehyde (PFA) for 15 min. Choroid-sclera complexes and retinas were separated and anti-CD31 immunofluorescence (IF) or lectin labeling was performed to evidence the vasculature by whole mount staining of both retina and choroidal tissues or flat-mounts of retina. For CD31 IF, rat anti-mouse antibody (BD Biosciences, CAT #550274) was diluted 1:100 and incubated overnight at 4° C. After 4-hour incubation with the Alexa Fluor-488-conjugated anti-rat antibody (Life Technologies, CAT #A11006), whole mounts were imaged via the 488 nm channel using Keyence Microscope BZ-X710 (Keyence Corporation, Osaka, Japan) or A1R Confocal STORM super-resolution system (Nikon). For lectin staining, Dylight-488-labeled lectin (Vector Laboratories, CAT #DL-1174) was diluted at 1:200 and images were obtained using A1R Confocal STORM super-resolution system (Nikon). For Quantification of vascular density in choroids and retina was carried out by Image J. Student's t test was used for statistical analysis. Each experiment was repeated three times with similar results each time, and each treatment group consists of 4 or 5 individual samples in every experiment. All animal experimental procedures were approved by the Institutional Animal Care and Use Committee (IACUC) of the University of California San Diego and conducted in accordance with the guidelines of the Animal Care Program (ACP).\nOptical coherence tomography angiography (OCTA) imaging of the retina of adult mice was performed 7 days after LIF injection, using a 1300 nm optical coherence tomography (OCT) system developed by Dr. R. K. Wang's group at University of Washington Seattle, in agreement with previously described methodology (66). Briefly, the swept laser operated in single longitude mode with a 90 nm bandwidth centered at 1300 nm and 200 kHz A-line rate was used to scan mouse retina and to generate images of vasculature in a field of view of 1.5×1.5 mm^2. 2500 B-frames were captured at 500 cross-sections with five repeated B-frames at each cross-section. To quantify the retinal vascular density, retinal and choroidal layers in 3D structure OCT scans were separated by the hyper-reflecting retinal pigment epithelium (RPE). Then the en face maximum intensity projection was generated. The vessel density was then determined by calculating the percentages of vessel-covered area in total area of view using the ImageJ software."}},
  "data": [
    {"substance": "LIF: recombinant human leukemia inhibitory factor, a member of the IL-6 family of cytokines", "values": [
      {"measurement": "microvascular outgrowth from the choroidal explant into the matrigel", "setting": "mouse choroidal explants", "result": "significantly enhanced"},
      {"measurement": "upregulation of IGFBP3", "setting": "BAE cells; BAE cells incubated with LIF for 6 hours, RNA-seq, confirmed by qRT-PCR", "result": "approximately 8 fold"},
      {"measurement": "cyclin A/B expression", "setting": "BAE cells; BAE cells, LIF 10 ng/ml 24 hours, qRT-PCR", "result": "downregulation"},
      {"measurement": "CTSB (cathepsin B) levels", "setting": "BAE cells; BAE cells, LIF 24 hours", "result": "not CTSB"},
      {"measurement": "CTSL (cathepsin L) mRNA and protein levels", "setting": "BAE cells; BAE cells, LIF 24 hours", "result": "dramatically upregulated"},
      {"measurement": "PIM1 expression", "setting": "BAE cells; BAE cells, LIF treatment", "result": "induction"},
      {"measurement": "retinal vascular density in neonatal mice (lectin)", "setting": "[1]; 5-day postnatal (P5) mice, intravitreal LIF 50 ng, three days after the injection", "result": "significant increase in vascular density"},
      {"measurement": "retinal microvessel density (CD31)", "setting": "[1]; 10 ng per eye, 7 days", "result": "significantly increased"},
      {"measurement": "retinal microvessel density (CD31)", "setting": "[1]; 100 ng, 7 days", "result": "less effective"},
      {"measurement": "vessel density in retina, CD31 immunofluorescence in cross sections of mouse eyes", "setting": "[1]; adult mice, intravitreal LIF 10 ng, 7 days", "result": "increased vessel density"},
      {"measurement": "retinal vessel density by OCTA", "setting": "[1]; adult mice, intravitreal LIF 50 ng, 7 days", "result": "significant increases"}
    ]}
  ]
}
